Data published in patent publication US9725468B2, “C5-spiro iminothiazine dioxides as BACE inhibitors, compositions, and their use” (Merck Sharp & Dohme Corp., priority 2013, dated 2017).

Key:
[1] = biological target: T1, purified human autoBACE-2 (Homo sapiens, UniProt Q9Y5Z0); assay: BACE-2 Assay (BACE-HTRF assay); type: biochemical; conditions: Ki calculated from IC50 using the Cheng-Prusoff equation; QSY7-EISEVNLDAEFC-Eu-amide substrate 200 nM, pH 5.0; read-out: BACE2 Ki
T1 sequence (Q9Y5Z0 63-473 limits assumed): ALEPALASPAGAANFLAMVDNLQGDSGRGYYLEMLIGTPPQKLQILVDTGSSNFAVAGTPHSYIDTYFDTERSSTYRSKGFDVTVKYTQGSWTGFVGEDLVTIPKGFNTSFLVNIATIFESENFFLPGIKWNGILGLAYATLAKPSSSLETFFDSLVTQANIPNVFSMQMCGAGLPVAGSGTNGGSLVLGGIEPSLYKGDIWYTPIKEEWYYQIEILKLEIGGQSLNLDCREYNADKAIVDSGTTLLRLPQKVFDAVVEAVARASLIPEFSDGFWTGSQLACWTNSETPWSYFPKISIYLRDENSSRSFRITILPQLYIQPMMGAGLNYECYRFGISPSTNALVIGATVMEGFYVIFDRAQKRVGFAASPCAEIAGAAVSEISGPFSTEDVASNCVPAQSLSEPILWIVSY
Protocol: Inhibitor ICsos at purified human autoBACE-2 are determined in a time-resolved endpoint proteolysis assay that measures hydrolysis of the QSY7-EISEVNLDAEFC-Eu-amide FRET peptide substrate (BACE-HTRF assay). BACE-mediated hydrolysis of this peptide results in an increase in relative fluorescence (RFU) at 620 nm after excitation with 320 nm light. Inhibitor compounds, prepared at 3× the desired final concentration in 1×BACE assay buffer (20 mM sodium acetate pH 5.0, 10% glycerol, 0.1% Brij-35) supplemented with 7.5% DMSO are preincubated with an equal volume of autoBACE-2 enzyme diluted in 1×BACE assay buffer (final enzyme concentration 1 nM) in black 384-well NUNC plates for 30 minutes at 30° C. The assay is initiated by addition of an equal volume of the QSY7-EISEVNLDAEFC-Eu-amide substrate (200 nM final concentration, […]) prepared in 1×BACE assay buffer supplemented with 7.5% DMSO and incubated for 90 minutes at 30° C. DMSO is present at 5% final concentration in the assay. Following laser excitation of sample wells at 320 nm, the fluorescence signal at 620 nm is collected for 400 ms following a 50 μs delay on a RUBYstar HTRF plate reader (BMG Labtechnologies). Raw RFU data is normalized to maximum (1.0 nM BACE/DMSO) and minimum (no enzyme/DMSO) RFU values. IC50s are determined by nonlinear regression analysis (sigmoidal dose response, variable slope) of percent inhibition data with minimum and maximum values set to 0 and 100 percent respectively. Similar IC50s are obtained when using raw RFU data. The Ki values are calculated from the IC50 using the Cheng-Prusoff equation.

[2] = biological target: soluble human BACE1 catalytic domain (Homo sapiens, UniProt P56817); assay: BACE1 HTRF FRET Assay; type: biochemical; conditions: Ki calculated from IC50 using the Cheng-Prusoff equation; QSY7-APPswe-Eu substrate 200 nM, pH 5.0
Excerpt: Na^+-Acetate pH 5.0; 1% Brij-35; Glycerol; Dimethyl Sulfoxide (DMSO); Recombinant human soluble BACE1 catalytic domain (>95% pure); APP Swedish mutant peptide substrate (QSY7-APP^swe-Eu): QSY7-EISEVNLDAEFC-Europium-amide.
A homogeneous time-resolved FRET assay can be used to determine IC50 values for inhibitors of the soluble human BACE1 catalytic domain. This assay monitors the increase of 620 nm fluorescence that resulted from BACE1 cleavage of an APPswedish APP^swe mutant peptide FRET substrate (QSY7-EISEVNLDAEFC-Europium-amide). This substrate contains an N-terminal QSY7 moiety that serves as a quencher of the C-terminal Europium fluorophore (620 nm Em). In the absence of enzyme activity, 620 nm fluorescence is low in the assay and increased linearly over 3 hours in the presence of uninhibited BACE1 enzyme. Inhibition of BACE1 cleavage of the QSY7-APP^swe-Eu substrate by inhibitors is manifested as a suppression of 620 nm fluorescence.
Varying concentrations of inhibitors at 3× the final desired concentration in a volume of 10 ul are preincubated with purified human BACE1 catalytic domain (3 nM in 10 μl) for 30 minutes at 30° C. in reaction buffer containing 20 mM Na-Acetate pH 5.0, 10% glycerol, 0.1% Brij-35 and 7.5% DSMO. Reactions are initiated by addition of 10 μl of 600 nM QSY7-APP^swe-Eu substrate (200 nM final) to give a final reaction volume of 30 μl in a 384 well Nunc HTRF plate. The reactions are incubated at 30° C. for 1.5 hours. The 620 nm fluorescence is then read on a Rubystar HTRF plate reader (BMG Labtechnologies) using a 50 millisecond delay followed by a 400 millisecond acquisition time window. Inhibitor IC50 values are derived from non-linear regression analysis of concentration response curves. Ki values are then calculated from IC50 values using the Cheng-Prusoff equation using a previously determined […] for the QSY7-APP^swe-Eu substrate at BACE1.

soluble human BACE1 catalytic domain, sequence (P56817 75-416 limits assumed): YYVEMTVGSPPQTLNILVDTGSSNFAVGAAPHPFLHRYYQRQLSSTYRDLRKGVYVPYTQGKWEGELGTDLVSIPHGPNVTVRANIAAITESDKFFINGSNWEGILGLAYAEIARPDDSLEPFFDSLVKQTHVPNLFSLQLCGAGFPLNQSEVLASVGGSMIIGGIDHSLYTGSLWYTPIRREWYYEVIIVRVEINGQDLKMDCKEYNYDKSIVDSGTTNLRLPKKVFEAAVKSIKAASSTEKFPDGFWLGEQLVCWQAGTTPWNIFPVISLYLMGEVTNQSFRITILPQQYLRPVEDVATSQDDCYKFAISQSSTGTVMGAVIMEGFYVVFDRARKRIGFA

CC1(C)C(=N)N[C@@]2(COCc3ccc(NC(=O)c4ccc(OC(F)F)cn4)cc32)CS1(=O)=O [Example E-18]
Ki [1]: 76 nM
Ki [2]: 34 nM

COc1cnc(C(=O)Nc2ccc3c(c2)[C@]2(CCC3)CS(=O)(=O)C(C)(C)C(=N)N2)cn1 [Example G-11]
Ki [1]: 57 nM
Ki [2]: 92 nM

COc1cnc(C(=O)Nc2ccc3c(c2)[C@]2(CCO3)CS(=O)(=O)C(C)(C)C(=N)N2)c(C)n1 [Example C-21]
Ki [1]: 20 nM
Ki [2]: 40 nM

Cn1cc(Cl)c(C(=O)Nc2ccc3c(c2)[C@]2(CCC3)CS(=O)(=O)C(C)(C)C(=N)N2)n1 [Example G-6]
Ki [1]: 1 nM
Ki [2]: 17 nM

Cc1nc(C(=O)Nc2ccc3c(c2)[C@]2(COC3)CS(=O)(=O)C(C)(C)C(=N)N2)no1 [Example E-8]
Ki [1]: 12 nM
Ki [2]: 281 nM

COc1cnc(C(=O)Nc2ccc3c(c2)[C@]2(COC3)CS(=O)(=O)C(C)(C)C(=N)N2)c(C)c1 [Example E-11]
Ki [1]: 5 nM
Ki [2]: 59 nM

CC1(C)C(=N)N[C@@]2(COCc3ccc(NC(=O)c4cc5ccccn5n4)cc32)CS1(=O)=O [Example E-2]
Ki [1]: 200 nM
Ki [2]: 1200 nM

CC1(C)C(=N)N[C@@]2(CCCc3ccc(NC(=O)c4cnc(C(F)(F)F)cn4)cc32)CS1(=O)=O [Example G-12]
Ki [1]: 163 nM
Ki [2]: 57 nM

CC1(C)C(=N)N[C@@]2(CCOc3ccc(NC(=O)c4ccc(C#N)cn4)cc32)CS1(=O)=O [Example C-15]
Ki [1]: 9 nM
Ki [2]: 3 nM

C#CCOc1ccc(C(=O)Nc2ccc3c(c2)[C@]2(CCC3)CS(=O)(=O)C(C)(C)C(=N)N2)nc1 [Example G-7]
Ki [1]: 51 nM
Ki [2]: 10 nM

Cc1cc(C#N)cnc1C(=O)Nc1ccc2c(c1)[C@]1(COC2)CS(=O)(=O)C(C)(C)C(=N)N1 [Example E-5]
Ki [1]: 8 nM
Ki [2]: 6 nM

Cc1cc(C#N)cnc1C(=O)Nc1ccc2c(c1)[C@]1(CCC2)CS(=O)(=O)C(C)(C)C(=N)N1 [Example G-10]
Ki [1]: 3 nM
Ki [2]: 2 nM

Cc1nc(C(=O)Nc2ccc3c(c2)[C@]2(CCO3)CS(=O)(=O)C(C)(C)C(=N)N2)co1 [Example C-2]
Ki [1]: 3 nM
Ki [2]: 18 nM

CC1(C)C(=N)N[C@@]2(COCc3ccc(NC(=O)c4ccn(C(F)F)n4)cc32)CS1(=O)=O [Example E-7]
Ki [1]: 2 nM
Ki [2]: 12 nM

CC1(C)C(=N)N[C@@]2(CCOc3ccc(NC(=O)c4ccc(Cl)cn4)cc32)CS1(=O)=O [Example B-1]
Ki [1]: 2 nM
Ki [2]: 8 nM

CC1(C)C(=N)N[C@@]2(COCc3ccc(NC(=O)c4ccc(OC(F)(F)F)cn4)cc32)CS1(=O)=O [Example E-3]
Ki [1]: 175 nM
Ki [2]: 50 nM

CC1(C)C(=N)N[C@@]2(CCOc3ccc(NC(=O)c4ccn(C(F)F)n4)cc32)CS1(=O)=O [Example C-1]
Ki [1]: 1 nM
Ki [2]: 3 nM

C#CCOc1ccc(C(=O)Nc2ccc3c(c2)[C@]2(CCO3)CS(=O)(=O)C(C)(C)C(=N)N2)nc1 [Example C-19]
Ki [1]: 48 nM
Ki [2]: 7 nM

C#CCOc1cnc(C(=O)Nc2ccc3c(c2)[C@]2(COC3)CS(=O)(=O)C(C)(C)C(=N)N2)cn1 [Example E-4]
Ki [1]: 72 nM
Ki [2]: 20 nM

CC1(C)C(=N)N[C@@]2(CCOc3ccc(NC(=O)c4ccc(OC(F)(F)F)cn4)cc32)CS1(=O)=O [Example C-11]
Ki [1]: 41 nM
Ki [2]: 10 nM

CC1(C)C(=N)N[C@@]2(CCOc3ccc(NC(=O)c4ccc(OCF)cn4)cc32)CS1(=O)=O [Example C-13]
Ki [1]: 8 nM
Ki [2]: 14 nM

COc1cnc(C(=O)Nc2ccc3c(c2)[C@]2(COC3)CS(=O)(=O)C(C)(C)C(=N)N2)cn1 [Example E-22]
Ki [1]: 187 nM
Ki [2]: 334 nM

CC1(C)C(=N)N[C@@]2(CCOc3ccc(NC(=O)c4ncc(C(F)(F)F)cn4)cc32)CS1(=O)=O [Example C-16]
Ki [1]: 98 nM
Ki [2]: 107 nM

CC#CCOc1ccc(C(=O)Nc2ccc3c(c2)[C@]2(CCO3)CS(=O)(=O)C(C)(C)C(=N)N2)nc1 [Example C-18]
Ki [1]: 45 nM
Ki [2]: 3 nM

CC1(C)C(=N)N[C@@]2(CCOc3ccc(NC(=O)c4ncc(Cl)cc4F)cc32)CS1(=O)=O [Example C-17]
Ki [1]: 2 nM
Ki [2]: 8 nM

CC1(C)C(=N)N[C@@]2(COCc3ccc(NC(=O)c4cnc(OCCF)cn4)cc32)CS1(=O)=O [Example E-17]
Ki [1]: 443 nM
Ki [2]: 326 nM

Cc1cc(C#N)cnc1C(=O)Nc1ccc2c(c1)[C@]1(CCO2)CS(=O)(=O)C(C)(C)C(=N)N1 [Example C-22]
Ki [1]: 3 nM
Ki [2]: 2 nM

Cc1nc(C(=O)Nc2ccc3c(c2)[C@]2(CCC3)CS(=O)(=O)C(C)(C)C(=N)N2)co1 [Example G-19]
Ki [1]: 3 nM
Ki [2]: 21 nM

Cc1nc(C(=O)Nc2ccc3c(c2)[C@]2(CCO3)CS(=O)(=O)C(C)(C)C(=N)N2)no1 [Example C-7]
Ki [1]: 4 nM
Ki [2]: 47 nM

C#CCOc1cnc(C(=O)Nc2ccc3c(c2)[C@]2(CCO3)CS(=O)(=O)C(C)(C)C(=N)N2)cn1 [Example C-3]
Ki [1]: 14 nM
Ki [2]: 3 nM

CC1(C)C(=N)N[C@@]2(CCOc3ccc(NC(=O)c4cn5cc(C#N)ccc5n4)cc32)CS1(=O)=O [Example C-8]
Ki [1]: 157 nM
Ki [2]: 121 nM

CC1(C)C(=N)N[C@@]2(CCOc3ccc(NC(=O)c4ccc(C(F)(F)F)cn4)cc32)CS1(=O)=O [Example C-6]
Ki [1]: 50 nM
Ki [2]: 10 nM

CC1(C)C(=N)N[C@@]2(COCc3ccc(NC(=O)c4ccc(F)cn4)cc32)CS1(=O)=O [Example E-13]
Ki [1]: 17 nM
Ki [2]: 127 nM

CC1(C)C(=N)N[C@@]2(COCc3ccc(NC(=O)c4cn5cc(C#N)ccc5n4)cc32)CS1(=O)=O [Example E-12]
Ki [1]: 2950 nM
Ki [2]: 556 nM

C#CCOc1cnc(C(=O)Nc2ccc3c(c2)[C@]2(CCC3)CS(=O)(=O)C(C)(C)C(=N)N2)cn1 [Example G-5]
Ki [1]: 20 nM
Ki [2]: 7 nM

CC1(C)C(=N)N[C@@]2(CCCc3ccc(NC(=O)c4ccc(F)cn4)cc32)CS1(=O)=O [Example G-14]
Ki [1]: 7 nM
Ki [2]: 55 nM

CC1(C)C(=N)N[C@@]2(CCCc3ccc(NC(=O)c4ccc(C(F)(F)F)cn4)cc32)CS1(=O)=O [Example G-24]
Ki [1]: 30 nM
Ki [2]: 8 nM
